Laboratory results as given in the supplement of paper PMC4862054.
“And” between values parts separate entries of the source, which are not always exact repeats. Equal values may be shown once.

Legend:
Test in all cases: normalised viability (% of control), CellTiter-Blue; higher = more viable cells (about 100 = DMSO control)
Conditions in all cases: incubation time: 72 h
CAL-148 [1] = tested on: CAL-148
Method: (§1)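 DSRT, CellTiter-Blue viability, 72 h incubation. Signal is normalised to DMSO and benzethonium chloride controls. Value is the normalised response at dose 9.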

CAL-85-1 [2] = tested on: CAL-85-1
Method: as §1

HDQ-P1 [3] = tested on: HDQ-P1
Method: as §1

CAL-51 [4] = tested on: CAL-51
Method: as §1

DU-4475 [5] = tested on: DU-4475
Method: as §1

MDA-MB-453 [6] = tested on: MDA-MB-453
Method: as §1

CAL-148 [7] = tested on: CAL-148; remark: listed apart in the source
Method: (§2)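 DSRT, CellTiter-Blue viability, 72 h incubation. Signal is normalised to DMSO and benzethonium chloride controls. Value is the normalised response at dose 8.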

CAL-85-1 [8] = tested on: CAL-85-1; remark: listed apart in the source
Method: as §2

HDQ-P1 [9] = tested on: HDQ-P1; remark: listed apart in the source
Method: as §2

CAL-51 [10] = tested on: CAL-51; remark: listed apart in the source
Method: as §2

DU-4475 [11] = tested on: DU-4475; remark: listed apart in the source
Method: as §2

MDA-MB-453 [12] = tested on: MDA-MB-453; remark: listed apart in the source
Method: as §2

Compound: N[C@@H](Cc1ccc(N(CCCl)CCCl)cc1)C(=O)O [Melphalan] (990 nM)
- normalised viability (CAL-148 [1]): 74.2%
- normalised viability (CAL-85-1 [2]): 72.1%
- normalised viability (HDQ-P1 [3]): 94%
- normalised viability (CAL-51 [4]): 68.8%
- normalised viability (DU-4475 [5]): 62.4%
- normalised viability (MDA-MB-453 [6]): 95.8%

Compound: C[C@@H](CN1CC(=O)NC(=O)C1)N1CC(=O)NC(=O)C1 [Dexrazoxane] (10000 nM)
- normalised viability (CAL-148 [1]): 96.2%
- normalised viability (CAL-85-1 [2]): 93.7%
- normalised viability (HDQ-P1 [3]): 85.2%
- normalised viability (CAL-51 [4]): 92.9%
- normalised viability (DU-4475 [5]): 102%
- normalised viability (MDA-MB-453 [6]): 100%

Compound: C[C@@H]1C[C@H]2[C@@H]3CCC4=CC(=O)C=C[C@]4(C)[C@@]3(F)[C@@H](O)C[C@]2(C)[C@@]1(O)C(=O)CO [Dexamethasone] (3000 nM)
- normalised viability (CAL-148 [7]): 93.3%
- normalised viability (CAL-85-1 [8]): 115%
- normalised viability (HDQ-P1 [9]): 112%
- normalised viability (CAL-51 [10]): 106%
- normalised viability (DU-4475 [11]): 100%
- normalised viability (MDA-MB-453 [12]): 78.2%

Compound: O=C(c1cc(Cc2n[nH]c(=O)c3ccccc23)ccc1F)N1CCN(C(=O)C2CC2)CC1 [Olaparib] (3000 nM)
- normalised viability (CAL-148 [7]): 64.2%
- normalised viability (CAL-85-1 [8]): 71.4%
- normalised viability (HDQ-P1 [9]): 100%
- normalised viability (CAL-51 [10]): 68.9%
- normalised viability (DU-4475 [11]): 72.4%
- normalised viability (MDA-MB-453 [12]): 93%

Compound: N[C@@H](Cc1ccc(N(CCCl)CCCl)cc1)C(=O)O [Melphalan] (297 nM)
- normalised viability (CAL-148 [7]): 100%
- normalised viability (CAL-85-1 [8]): 97.9%
- normalised viability (HDQ-P1 [9]): 100%
- normalised viability (CAL-51 [10]): 106%
- normalised viability (DU-4475 [11]): 88.9%
- normalised viability (MDA-MB-453 [12]): 110%

Compound: CC/C(=C(\c1ccccc1)c1ccc(OCCN(C)C)cc1)c1ccccc1 [Tamoxifen] (3000 nM)
- normalised viability (CAL-148 [7]): 117%
- normalised viability (CAL-85-1 [8]): 102%
- normalised viability (HDQ-P1 [9]): 100%
- normalised viability (CAL-51 [10]): 99.1%
- normalised viability (DU-4475 [11]): 106%
- normalised viability (MDA-MB-453 [12]): 89.7%

Compound: Cc1cc2c(F)c(Oc3ncnn4cc(OC[C@@H](C)O)c(C)c34)ccc2[nH]1 [Brivanib] (300 nM)
- normalised viability (CAL-148 [7]): 98.5%
- normalised viability (CAL-85-1 [8]): 89.8%
- normalised viability (HDQ-P1 [9]): 113%
- normalised viability (CAL-51 [10]): 93.6%
- normalised viability (DU-4475 [11]): 98.9%
- normalised viability (MDA-MB-453 [12]): 99.1%

Compound: Cc1c(C(=O)Nc2ccc(N3C[C@@H](C)O[C@@H](C)C3)nc2)cccc1-c1ccc(OC(F)(F)F)cc1 [NVP-LDE225] (10000 nM)
- normalised viability (CAL-148 [1]): 121%
- normalised viability (CAL-85-1 [2]): 98.4%
- normalised viability (HDQ-P1 [3]): 127%
- normalised viability (CAL-51 [4]): 92.5%
- normalised viability (DU-4475 [5]): 110%
- normalised viability (MDA-MB-453 [6]): 82.8%

Compound: CO[C@H]1C[C@@H]2CC[C@@H](C)[C@@](O)(O2)C(=O)C(=O)N2CCCC[C@H]2C(=O)O[C@H]([C@H](C)C[C@@H]2CC[C@@H](O)[C@H](OC)C2)CC(=O)[C@H](C)/C=C(\C)[C@@H](O)[C@@H](OC)C(=O)[C@H](C)C[C@H](C)/C=C/C=C/C=C/1C [Sirolimus] (300 nM)
- normalised viability (CAL-148 [7]): 39.1%
- normalised viability (CAL-85-1 [8]): 59.8%
- normalised viability (HDQ-P1 [9]): 58.8%
- normalised viability (CAL-51 [10]): 31.1%
- normalised viability (DU-4475 [11]): 63.7%
- normalised viability (MDA-MB-453 [12]): 31.6%

Compound: Cc1c(C(=O)Nc2ccc(N3C[C@@H](C)O[C@@H](C)C3)nc2)cccc1-c1ccc(OC(F)(F)F)cc1 [NVP-LDE225] (3000 nM)
- normalised viability (CAL-148 [7]): 107%
- normalised viability (CAL-85-1 [8]): 109%
- normalised viability (HDQ-P1 [9]): 84.1%
- normalised viability (CAL-51 [10]): 101%
- normalised viability (DU-4475 [11]): 121%
- normalised viability (MDA-MB-453 [12]): 75.2%

Compound: CC(C)C[C@H](NC(=O)[C@H](CCc1ccccc1)NC(=O)CN1CCOCC1)C(=O)N[C@@H](Cc1ccccc1)C(=O)N[C@@H](CC(C)C)C(=O)[C@@]1(C)CO1 [Carfilzomib] (300 nM)
- normalised viability (CAL-148 [7]): 1.83%
- normalised viability (CAL-85-1 [8]): 2.07%
- normalised viability (HDQ-P1 [9]): 0.3%
- normalised viability (CAL-51 [10]): 2.56%
- normalised viability (DU-4475 [11]): 1.31%
- normalised viability (MDA-MB-453 [12]): 18.1%

Compound: NC(=O)c1cccc2cn(-c3ccc([C@@H]4CCCNC4)cc3)nc12 [MK-4827] (3000 nM)
- normalised viability (CAL-148 [7]): 73.5%
- normalised viability (CAL-85-1 [8]): 85.8%
- normalised viability (HDQ-P1 [9]): 91.3%
- normalised viability (CAL-51 [10]): 48.8%
- normalised viability (DU-4475 [11]): 58.6%
- normalised viability (MDA-MB-453 [12]): 101%

Compound: C[C@@H](CN1CC(=O)NC(=O)C1)N1CC(=O)NC(=O)C1 [Dexrazoxane] (3000 nM)
- normalised viability (CAL-148 [7]): 96%
- normalised viability (CAL-85-1 [8]): 104%
- normalised viability (HDQ-P1 [9]): 98.1%
- normalised viability (CAL-51 [10]): 83.9%
- normalised viability (DU-4475 [11]): 92.8%
- normalised viability (MDA-MB-453 [12]): 87.5%

Compound: CO[C@H]1C[C@@H]2CC[C@@H](C)[C@@](O)(O2)C(=O)C(=O)N2CCCC[C@H]2C(=O)O[C@H]([C@H](C)C[C@@H]2CC[C@@H](O)[C@H](OC)C2)CC(=O)[C@H](C)/C=C(\C)[C@@H](O)[C@@H](OC)C(=O)[C@H](C)C[C@H](C)/C=C/C=C/C=C/1C [Sirolimus] (1000 nM)
- normalised viability (CAL-148 [1]): 44%
- normalised viability (CAL-85-1 [2]): 59.3%
- normalised viability (HDQ-P1 [3]): 70.3%
- normalised viability (CAL-51 [4]): 26.1%
- normalised viability (DU-4475 [5]): 59.9%
- normalised viability (MDA-MB-453 [6]): 25.3%

Compound: CC(C)C(=O)Nc1ccc([N+](=O)[O-])c(C(F)(F)F)c1 [Flutamide] (3000 nM)
- normalised viability (CAL-148 [7]): 104%
- normalised viability (CAL-85-1 [8]): 94.9%
- normalised viability (HDQ-P1 [9]): 98.8%
- normalised viability (CAL-51 [10]): 110%
- normalised viability (DU-4475 [11]): 93.2%
- normalised viability (MDA-MB-453 [12]): 120%

Compound: CO[C@H](C(=O)[C@@H](O)[C@@H](C)O)[C@@H]1Cc2cc3cc(O[C@H]4C[C@@H](O[C@@H]5C[C@@H](O)[C@H](O)[C@@H](C)O5)[C@H](O)[C@@H](C)O4)c(C)c(O)c3c(O)c2C(=O)[C@H]1O[C@H]1C[C@@H](O[C@@H]2C[C@@H](O)[C@@H](O[C@@H]3C[C@](C)(O)[C@H](O)[C@@H](C)O3)[C@@H](C)O2)[C@H](O)[C@@H](C)O1 [Plicamycin] (3000 nM)
- normalised viability (CAL-148 [7]): 5.24% and 3.76%
- normalised viability (CAL-85-1 [8]): 5.82% and 5.38%
- normalised viability (HDQ-P1 [9]): 23.8% and 15.9%
- normalised viability (CAL-51 [10]): 3.09% and 4.26%
- normalised viability (DU-4475 [11]): 2.08% and 0.69%
- normalised viability (MDA-MB-453 [12]): 7% and 7.5%
